Measured values: PubChem BioAssay AID256 (DTP/NCI, 2004)
Inconclusive results and toxic doses are left out. The calls were made as follows: active = survival T/C of 150% or more; inactive = T/C below 125% in these data.

Test system: CD2F1 mice, L1210 leukemia ip, survival T/C
Test: NCI In Vivo Anticancer Drug Screen. Data for tumor model L1210 Leukemia (intraperitoneal) in CD2F1 (CDF1) mice
Conditions: endpoint: mean survival time, higher = longer survival
Procedure, shortened: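 Mice carrying a transplanted tumor received test compound or vehicle alone. The value is the measurement in the treated group divided by that in the vehicle-treated control group.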

[1] = dose: 50.0 mg/kg/injection, schedule: Q01DX009 (ip), vehicle: Klucel (hydroxypropylcellulose) (HPC)
[2] = dose: 100.0 mg/kg/injection, schedule: Q01DX009 (ip), vehicle: Klucel (hydroxypropylcellulose) (HPC)
[3] = dose: 200.0 mg/kg/injection, schedule: Q01DX009 (ip), vehicle: Klucel (hydroxypropylcellulose) (HPC)
[4] = dose: 50.0 mg/kg/injection, schedule: Q04DX003 (ip), vehicle: saline with Tween-80

Measured: T/C

CC(=O)[O][Hg][c]1s[c]([Hg][O]C(C)=O)[c]([Hg][O]C(C)=O)[c]1[Hg][O]C(C)=O
inactive: dose: 1.5 mg/kg/injection, schedule: Q01DX009 (ip), vehicle: saline sonified 96 % of control | dose: 3.0 mg/kg/injection, schedule: Q01DX009 (ip), vehicle: saline sonified 98 % of control | dose: 6.0 mg/kg/injection, schedule: Q01DX009 (ip), vehicle: saline sonified 106 % of control | dose: 6.25 mg/kg/injection, schedule: Q01DX009 (ip), vehicle: Klucel (hydroxypropylcellulose) (HPC) 101 % of control | dose: 6.25 mg/kg/injection, schedule: Q04DX003 (ip), vehicle: saline with Tween-80 104 % of control | dose: 12.5 mg/kg/injection, schedule: Q01DX009 (ip), vehicle: Klucel (hydroxypropylcellulose) (HPC) 106 % of control | dose: 25.0 mg/kg/injection, schedule: Q01DX009 (ip), vehicle: Klucel (hydroxypropylcellulose) (HPC) 104 % of control

N#CSc1ccc2c(ccn2C2OCC(O)C(O)C2O)c1 (stereo unspecified)
inactive: dose: 12.5 mg/kg/injection, schedule: Q01DX005 (ip), vehicle: other 93 % of control | dose: 25.0 mg/kg/injection, schedule: Q01DX005 (ip), vehicle: other 93 % of control | dose: 50.0 mg/kg/injection, schedule: Q01DX005 (ip), vehicle: other 101 % of control

OC(Cc1nc2ccccc2[nH]1)c1nc2ccccc2[nH]1 (stereo unspecified)
inactive: [1] 104 % of control | [2] 97 % of control | [3] 101 % of control

COc1ccc(C(=O)c2cccc3c2-c2ccccc2C3(c2ccc(OC)c(C)c2)c2ccc(OC)c(C)c2)cc1C
inactive: dose: 5.0 mg/kg/injection, schedule: Q01DX001 (ip), vehicle: other 96 % of control | dose: 10.0 mg/kg/injection, schedule: Q01DX001 (ip), vehicle: other 88 % of control | dose: 40.0 mg/kg/injection, schedule: Q01DX001 (ip), vehicle: other 86 % of control | dose: 80.0 mg/kg/injection, schedule: Q01DX001 (ip), vehicle: other 91 % of control

CC1CCC=C2C(=O)C3OC3C(C(C)(C)O)C21C (stereo unspecified)
inactive: dose: 100.0 mg/kg/injection, schedule: Q04DX003 (ip), vehicle: acetone 93 % of control | dose: 200.0 mg/kg/injection, schedule: Q04DX003 (ip), vehicle: acetone 88 % of control | dose: 400.0 mg/kg/injection, schedule: Q04DX003 (ip), vehicle: acetone 88 % of control

C#CC1(c2ccccc2)OCCO1
inactive: dose: 12.5 mg/kg/injection, schedule: Q01DX009 (ip), vehicle: saline with Tween-80 97 % of control | dose: 25.0 mg/kg/injection, schedule: Q01DX009 (ip), vehicle: saline with Tween-80 97 % of control | dose: 50.0 mg/kg/injection, schedule: Q01DX009 (ip), vehicle: saline with Tween-80 94 % of control

C(CC1CCNCC1)CC1CCNCC1
inactive: dose: 25.0 mg/kg/injection, schedule: Q04DX003 (ip), vehicle: saline with Tween-80 95 % of control | [4] 87 % of control

Nc1nnc2c3[nH]cnc3ncn12
inactive: dose: 100.0 mg/kg/injection, schedule: Q01DX001 (ip), vehicle: Klucel (hydroxypropylcellulose) (HPC) 98 % of control | dose: 200.0 mg/kg/injection, schedule: Q01DX001 (ip), vehicle: Klucel (hydroxypropylcellulose) (HPC) 95 % of control | dose: 400.0 mg/kg/injection, schedule: Q01DX001 (ip), vehicle: Klucel (hydroxypropylcellulose) (HPC) 104 % of control

COc1ccc2nc3c(Cl)cccc3c(Cl)c2c1
inactive: [4] 98 % of control | dose: 100.0 mg/kg/injection, schedule: Q04DX003 (ip), vehicle: saline with Tween-80 97 % of control | dose: 200.0 mg/kg/injection, schedule: Q01DX001 (ip), vehicle: saline with Tween-80 87 % of control | dose: 200.0 mg/kg/injection, schedule: Q04DX003 (ip), vehicle: saline with Tween-80 101 % of control

NCC(=O)Nc1ccccc1
inactive: dose: 100.0 mg/kg/injection, schedule: Q01DX009 (ip), vehicle: saline 103 % of control | dose: 200.0 mg/kg/injection, schedule: Q01DX009 (ip), vehicle: saline 113 % of control | dose: 400.0 mg/kg/injection, schedule: Q01DX009 (ip), vehicle: saline 97 % of control

COc1ccc(C(=O)CCCC(=O)O)cc1
inactive: dose: 100.0 mg/kg/injection, schedule: Q01DX009 (ip), vehicle: saline with Tween-80 90 % of control | dose: 200.0 mg/kg/injection, schedule: Q01DX009 (ip), vehicle: saline with Tween-80 101 % of control | dose: 400.0 mg/kg/injection, schedule: Q01DX009 (ip), vehicle: saline with Tween-80 97 % of control

Cc1c(Cl)cccc1NC(=O)Nc1ccc(F)c([N+](=O)[O-])c1
inactive: [1] 91 % of control | [2] 102 % of control | [3] 98 % of control
